Values after ≈ are worked out from the molar mass of the structure shown.
What was measured:
Type in all cases: functional
Haemophilus influenzae [1] = assay: Antibacterial activity against Haemophilus influenzae ATCC 49247 by agar dilution method
Streptococcus pneumoniae = assay: Antibacterial activity against Streptococcus pneumoniae by agar dilution method
Moraxella catarrhalis = assay: Antibacterial activity against Moraxella catarrhalis by agar dilution method
Staphylococcus aureus [2] = assay: Antibacterial activity against Staphylococcus aureus ATCC 25923 by agar dilution method in presence of human plasma; conditions: ATCC 25923, Plasma
Haemophilus influenzae [3] = assay: Antibacterial activity against Haemophilus influenzae isolate 280 by agar dilution method
Staphylococcus aureus [4] = assay: Antibacterial activity against methicillin-susceptible Staphylococcus aureus by agar dilution method
Escherichia coli = assay: Antibacterial activity against Escherichia coli ATCC 25922 by agar dilution method
Haemophilus influenzae [5] = assay: Antibacterial activity against Haemophilus influenzae isolate 282 by agar dilution method
Haemophilus influenzae [6] = assay: Antibacterial activity against Haemophilus influenzae isolate 283 by agar dilution method
Haemophilus influenzae [7] = assay: Antibacterial activity against Haemophilus influenzae isolate 285 by agar dilution method
Enterococcus [8] = assay: Antibacterial activity against vancomycin-sensitive Enterococcus by agar dilution method
Enterococcus [9] = assay: Antibacterial activity against vancomycin-resistant Enterococcus by agar dilution method
Staphylococcus aureus [10] = assay: Antibacterial activity against methicillin-resistant Staphylococcus aureus by agar dilution method
Staphylococcus aureus [11] = assay: Antibacterial activity against Staphylococcus aureus ATCC 25923 by agar dilution method
Staphylococcus [12] = assay: Antibacterial activity against methicillin resistant coagulase-negative Staphylococcus by agar dilution method
Staphylococcus [13] = assay: Antibacterial activity against methicillin-sensitive coagulase-negative Staphylococcus by agar dilution method

| Structure (SMILES) | MIC (Haemophilus influenzae [1]) [µg/mL] | MIC (Streptococcus pneumoniae) [µg/mL] | MIC (Moraxella catarrhalis) [µg/mL] | MIC (Staphylococcus aureus [2]) [µg/mL] | MIC (Haemophilus influenzae [3]) [µg/mL] | MIC (Staphylococcus aureus [4]) [µg/mL] | MIC (Escherichia coli) [µg/mL] | MIC (Haemophilus influenzae [5]) [µg/mL] | MIC (Haemophilus influenzae [6]) [µg/mL] | MIC (Haemophilus influenzae [7]) [µg/mL] | MIC (Enterococcus [8]) [µg/mL] | MIC (Enterococcus [9]) [µg/mL] | MIC (Staphylococcus aureus [10]) [µg/mL] | MIC (Staphylococcus aureus [11]) [µg/mL] | MIC (Staphylococcus [12]) [µg/mL] | MIC (Staphylococcus [13]) [µg/mL] |
| --- | --- | --- | --- | --- | --- | --- | --- | --- | --- | --- | --- | --- | --- | --- | --- | --- |
| Cc1cn(C[C@H]2CN(c3ccc(N4CCN(C(=O)OC(C)(C)C)CC4)c(F)c3)C(=O)O2)nn1 | > 64 | 8 (≈ 17.4 µM) | 64 (≈ 139 µM) | 64 | > 64 | 2 (≈ 4.34 µM) | > 64 | > 64 | > 64 | > 64 | – | – | – | – | – | – |
| Cc1cn(C[C@H]2CN(c3ccc(N4CCN(C(=O)C5CCC5)CC4)c(F)c3)C(=O)O2)nn1 | 32 (≈ 72.3 µM) | 4 (≈ 9.04 µM) | 32 (≈ 72.3 µM) | 16 | 32 (≈ 72.3 µM) | 2 (≈ 4.52 µM) | > 64 | 32 (≈ 72.3 µM) | 32 (≈ 72.3 µM) | 32 (≈ 72.3 µM) | 2 (≈ 4.52 µM) | 2 (≈ 4.52 µM) | 2 (≈ 4.52 µM) | 4 (≈ 9.04 µM) | 2 (≈ 4.52 µM) | 2 (≈ 4.52 µM) |
| Cc1cn(C[C@H]2CN(c3ccc(N4CCN(C(=O)C5CC5)CC4)c(F)c3)C(=O)O2)nn1 | 32 (≈ 74.7 µM) | 2 (≈ 4.67 µM) | 16 (≈ 37.3 µM) | 16 | 32 (≈ 74.7 µM) | 2 (≈ 4.67 µM) | > 64 | 32 (≈ 74.7 µM) | 32 (≈ 74.7 µM) | 32 (≈ 74.7 µM) | 1 (≈ 2.33 µM) | 1 (≈ 2.33 µM) | 2 (≈ 4.67 µM) | 2 (≈ 4.67 µM) | 1 (≈ 2.33 µM) | 1 (≈ 2.33 µM) |
| CCC(=O)N1CCN(c2ccc(N3C[C@H](Cn4cc(C)nn4)OC3=O)cc2F)CC1 | 32 (≈ 76.8 µM) | 1 (≈ 2.4 µM) | 16 (≈ 38.4 µM) | 8 | 32 (≈ 76.8 µM) | 1 (≈ 2.4 µM) | > 64 | 32 (≈ 76.8 µM) | 32 (≈ 76.8 µM) | 32 (≈ 76.8 µM) | 1 (≈ 2.4 µM) | 1 (≈ 2.4 µM) | 1 (≈ 2.4 µM) | 2 (≈ 4.8 µM) | 1 (≈ 2.4 µM) | 1 (≈ 2.4 µM) |
| Cc1cn(C[C@H]2CN(c3ccc(N4CCN(C(=O)c5ccccc5)CC4)c(F)c3)C(=O)O2)nn1 | > 64 | 4 (≈ 8.61 µM) | 32 (≈ 68.9 µM) | 32 | > 64 | 1 (≈ 2.15 µM) | > 64 | > 64 | > 64 | > 64 | 1 (≈ 2.15 µM) | 1 (≈ 2.15 µM) | 1 (≈ 2.15 µM) | 2 (≈ 4.31 µM) | 1 (≈ 2.15 µM) | 1 (≈ 2.15 µM) |
| Cc1cn(C[C@H]2CN(c3ccc(N4CCN(C=O)CC4)c(F)c3)C(=O)O2)nn1 | 64 (≈ 165 µM) | 1 (≈ 2.57 µM) | 8 (≈ 20.6 µM) | 8 | 64 (≈ 165 µM) | 1 (≈ 2.57 µM) | > 64 | 64 (≈ 165 µM) | 64 (≈ 165 µM) | 64 (≈ 165 µM) | 1 (≈ 2.57 µM) | 1 (≈ 2.57 µM) | 1 (≈ 2.57 µM) | 2 (≈ 5.15 µM) | 1 (≈ 2.57 µM) | 1 (≈ 2.57 µM) |
| CCSC(=O)N1CCN(c2ccc(N3C[C@H](Cn4cc(C)nn4)OC3=O)cc2F)CC1 | > 64 | 2 (≈ 4.46 µM) | 16 (≈ 35.7 µM) | 64 | > 64 | 1 (≈ 2.23 µM) | > 64 | > 64 | > 64 | > 64 | 1 (≈ 2.23 µM) | 1 (≈ 2.23 µM) | 1 (≈ 2.23 µM) | 2 (≈ 4.46 µM) | 1 (≈ 2.23 µM) | 1 (≈ 2.23 µM) |
| CCCCC(=O)N1CCN(c2ccc(N3C[C@H](Cn4cc(C)nn4)OC3=O)cc2F)CC1 | 64 (≈ 144 µM) | 2 (≈ 4.5 µM) | 16 (≈ 36 µM) | 32 | 64 (≈ 144 µM) | 1 (≈ 2.25 µM) | > 64 | 64 (≈ 144 µM) | 64 (≈ 144 µM) | 64 (≈ 144 µM) | 1 (≈ 2.25 µM) | 1 (≈ 2.25 µM) | 1 (≈ 2.25 µM) | 2 (≈ 4.5 µM) | 1 (≈ 2.25 µM) | 1 (≈ 2.25 µM) |
| CCC(C)C(=O)N1CCN(c2ccc(N3C[C@H](Cn4cc(C)nn4)OC3=O)cc2F)CC1 (some centres not stated) | > 64 | 4 (≈ 9 µM) | 32 (≈ 72 µM) | 32 | > 64 | 2 (≈ 4.5 µM) | > 64 | > 64 | > 64 | > 64 | 4 (≈ 9 µM) | 4 (≈ 9 µM) | 2 (≈ 4.5 µM) | 2 (≈ 4.5 µM) | 2 (≈ 4.5 µM) | 2 (≈ 4.5 µM) |
| Cc1cn(C[C@H]2CN(c3ccc(N4CCNCC4)c(F)c3)C(=O)O2)nn1.O=C(O)C(F)(F)F | 32 | 2 | 16 | 32 | 32 | 4 | > 64 | 32 | 32 | 32 | 4 | 8 | 4 | 4 | 4 | 4 |
| Cc1cn(C[C@H]2CN(c3ccc(N4CCOCC4)c(F)c3)C(=O)O2)nn1 | 64 (≈ 177 µM) | 1 (≈ 2.77 µM) | 8 (≈ 22.1 µM) | 4 | 64 (≈ 177 µM) | 1 (≈ 2.77 µM) | > 64 | 64 (≈ 177 µM) | 64 (≈ 177 µM) | 64 (≈ 177 µM) | 1 (≈ 2.77 µM) | 1 (≈ 2.77 µM) | 0.5 (≈ 1.38 µM) | 2 (≈ 5.53 µM) | 1 (≈ 2.77 µM) | 1 (≈ 2.77 µM) |
| Cc1cn(C[C@H]2CN(c3ccc(N4CCN(C(=O)C5CCCCC5)CC4)c(F)c3)C(=O)O2)nn1 | 32 (≈ 68 µM) | 4 (≈ 8.5 µM) | 32 (≈ 68 µM) | 32 | 32 (≈ 68 µM) | 1 (≈ 2.13 µM) | > 64 | 32 (≈ 68 µM) | 32 (≈ 68 µM) | 32 (≈ 68 µM) | 1 (≈ 2.13 µM) | 1 (≈ 2.13 µM) | 2 (≈ 4.25 µM) | 2 (≈ 4.25 µM) | 1 (≈ 2.13 µM) | 1 (≈ 2.13 µM) |
| CCCCCCC(=O)N1CCN(c2ccc(N3C[C@H](Cn4cc(C)nn4)OC3=O)cc2F)CC1 | > 64 | 8 (≈ 16.9 µM) | 64 (≈ 135 µM) | > 64 | > 64 | 8 (≈ 16.9 µM) | > 64 | > 64 | > 64 | > 64 | 4 (≈ 8.46 µM) | 4 (≈ 8.46 µM) | 8 (≈ 16.9 µM) | 8 (≈ 16.9 µM) | 8 (≈ 16.9 µM) | 4 (≈ 8.46 µM) |
| O=C1O[C@@H](Cn2ccnn2)CN1c1ccc(N2CCOCC2)c(F)c1 | 32 (≈ 92.1 µM) | 0.5 (≈ 1.44 µM) | > 16 | 1 | 32 (≈ 92.1 µM) | 0.5 (≈ 1.44 µM) | > 64 | 32 (≈ 92.1 µM) | 32 (≈ 92.1 µM) | 32 (≈ 92.1 µM) | 0.5 (≈ 1.44 µM) | 1 (≈ 2.88 µM) | 0.5 (≈ 1.44 µM) | 1 (≈ 2.88 µM) | 0.5 (≈ 1.44 µM) | 0.5 (≈ 1.44 µM) |
| Cc1cn(C[C@H]2CN(c3ccc(N4CCN(C(=O)C(F)(F)F)CC4)c(F)c3)C(=O)O2)nn1 | 64 (≈ 140 µM) | 1 (≈ 2.19 µM) | 8 (≈ 17.5 µM) | 8 | 64 (≈ 140 µM) | 1 (≈ 2.19 µM) | 8 (≈ 17.5 µM) | 64 (≈ 140 µM) | 64 (≈ 140 µM) | 64 (≈ 140 µM) | 1 (≈ 2.19 µM) | 1 (≈ 2.19 µM) | 2 (≈ 4.38 µM) | 4 (≈ 8.76 µM) | 1 (≈ 2.19 µM) | 1 (≈ 2.19 µM) |
| CC(=O)N1CCN(c2ccc(N3C[C@H](Cn4cc(C)nn4)OC3=O)cc2F)CC1 | 64 (≈ 159 µM) | 1 (≈ 2.48 µM) | 8 (≈ 19.9 µM) | 8 | 64 (≈ 159 µM) | 1 (≈ 2.48 µM) | > 64 | 64 (≈ 159 µM) | 64 (≈ 159 µM) | 64 (≈ 159 µM) | 1 (≈ 2.48 µM) | 1 (≈ 2.48 µM) | 1 (≈ 2.48 µM) | 2 (≈ 4.97 µM) | 1 (≈ 2.48 µM) | 1 (≈ 2.48 µM) |
| CN[C@H](CC(C)C)C(=O)N[C@H]1C(=O)N[C@@H](CC(N)=O)C(=O)N[C@H]2C(=O)N[C@H]3C(=O)N[C@H](C(=O)N[C@H](C(=O)O)c4cc(O)cc(O)c4-c4cc3ccc4O)[C@H](O)c3ccc(c(Cl)c3)Oc3cc2cc(c3O[C@@H]2O[C@H](CO)[C@@H](O)[C@H](O)[C@H]2O[C@H]2C[C@](C)(N)[C@H](O)[C@H](C)O2)Oc2ccc(cc2Cl)[C@H]1O [VANCOMYCIN] | > 16 | 0.5 (≈ 0.345 µM) | > 16 | – | > 16 | – | > 64 | > 16 | > 16 | > 16 | 0.25 (≈ 0.173 µM) | > 64 | – | – | 1 (≈ 0.69 µM) | 1 (≈ 0.69 µM) |
| CCOC(=O)N1CCN(c2ccc(N3C[C@H](Cn4cc(C)nn4)OC3=O)cc2F)CC1 | 64 (≈ 148 µM) | 4 (≈ 9.25 µM) | 16 (≈ 37 µM) | 32 | 64 (≈ 148 µM) | 1 (≈ 2.31 µM) | > 64 | 64 (≈ 148 µM) | 64 (≈ 148 µM) | 64 (≈ 148 µM) | 1 (≈ 2.31 µM) | 1 (≈ 2.31 µM) | 1 (≈ 2.31 µM) | 1 (≈ 2.31 µM) | 1 (≈ 2.31 µM) | 1 (≈ 2.31 µM) |
| CC(=O)NC[C@H]1CN(c2ccc(N3CCOCC3)c(F)c2)C(=O)O1 [LINEZOLID] | 8 (≈ 23.7 µM) | – | 8 (≈ 23.7 µM) | – | 8 (≈ 23.7 µM) | 0.5 (≈ 1.48 µM) | > 64 | 16 (≈ 47.4 µM) | 16 (≈ 47.4 µM) | 8 (≈ 23.7 µM) | 0.5 (≈ 1.48 µM) | 0.5 (≈ 1.48 µM) | 0.5 (≈ 1.48 µM) | – | 0.5 (≈ 1.48 µM) | 0.5 (≈ 1.48 µM) |
| Cc1cn(C[C@H]2CN(c3ccc(N4CCN(C(=O)CC(C)C)CC4)c(F)c3)C(=O)O2)nn1 | 64 (≈ 144 µM) | 4 (≈ 9 µM) | 32 (≈ 72 µM) | 32 | > 64 | 2 (≈ 4.5 µM) | > 64 | > 64 | > 64 | > 64 | 2 (≈ 4.5 µM) | 4 (≈ 9 µM) | 2 (≈ 4.5 µM) | 4 (≈ 9 µM) | 2 (≈ 4.5 µM) | 2 (≈ 4.5 µM) |

— ChEMBL document CHEMBL1153012, “Synthesis and antibacterial activity of novel 5-(4-methyl-1H-1,2,3-triazole) methyl oxazolidinones” (2009)
